Measured values reported in patent US7304094B2, “Cyclohexyl sulphones” (Merck Sharp + Dohme, priority 2001, dated 2007).

Work on `O=C(C[C@H]1CC[C@@](c2cc(F)ccc2F)(S(=O)(=O)c2ccc(Cl)cc2)CC1)c1ncn[nH]1` [Example 91] yielded a melting point of 147 to 154 °C.
